These results are taken from US20080069809A1, “Compositions and methods for the diagnosis and treatment of cancer” (priority 2006, published 2008).

Assay [1] concerns HL60. Kind of assay: Phagocytosis of complement-coated yeast by HL60 cells. The note with it: after 3 days of treatment, PMA 20 nM. Format: cell-based. Here is the method: Cell differentiation was determined by staining of cells with anti-CD11b antibody as a general early marker of myeloid differentiation. In studies with HL60 cells, PEP005-treated and 20 nM phorbol myristate (PMA)-treated (Sigma Aldrich) cells were also assessed for their ability to phagocytose complement-coated yeast, a marker of a fully differentiated myeloid cell, as previously described (Toksoz et al, Leukemia Res 6:491-498, 1982). The ingestion of three or more yeasts was taken as a positive result. In normal cord blood or adult bone marrow myeloblasts, loss of CD34 was taken as a marker of differentiation. Isotype-matched controls were used and all antibodies were from DAKO (Cambridge, United Kingdom). […] Cells were also used to prepare cytospins, which were then differentially stained using a commercial May-Grünwald-Ginesa stain (Diff-Kwik; Gamidor, Abingdon, United Kingdom) to identify cells with a blast or differentiated or apoptotic morphology. Slides were examined using a Zeiss III RS brightfield microscope equipped with a 40×/0.75 water-immersion objective (Carl Zeiss, Jena, Germany). Images were captured with a SPOT2 cameria (Diagnostic Instructions, Sterling Heights, Mich.) and analyzed using Image-Pro 4.0 software (Media Cybernetics, Silver Spring, Md.).

In the next assay the test system is protein kinase C (PKC). The note with it: Kedei et al 2004; cited from earlier work.
A further assay deals with U937. Kind of assay: Differentiation (CD11b expression) in U937 cells. The class given is cell-based. The protocol:
(§1) The myeloid leukemic cell lines HL60, NB60, NB4, U937, K562 and KG1a were all grown in RPMI 1640 medium (Life Technologies, Paisley, United Kingdom) supplemented with 10% v/v fetal calf serum (Sear Laboratories International Crawley, United Kingdom), 100 U/mL penicillin, and 100 μg/mL streptomycin (Sigma Aldrich, Poole, United Kingdom) at 37° C. and 5% v/v CO2. AML blasts were isolated from patient bone marrow aspirates and peripheral blood of eight patients at diagnosis or relapse. Patients were not receiving AML therapy at time of sampling. Blasts were isolated by Ficoll density centrifugation and were cultured in serum-free insulin transferrin selenium-positive (ITS+) medium (Life Technologies) containing 300 ng/mL stem cell factor (SCF) and 10 ng/mL interleukin 3 (IL3; R and D Systems, Abingdon, United Kingdom) and antibiotics. Blast purity ranged from 80% to 95%, as assessed by expression of CD34. Normal myeloblasts were isolated from cord blood or adult mobilized peripheral blood. Briefly, CD34^+ cells were indirectly selected from the mononuclear cell preparations using antibody-coated magnetic beads (Miltenyi Biotec, United Kingdom).
Cell differentiation was determined by staining of cells with anti-CD11b antibody as a general early marker of myeloid differentiation. In studies with HL60 cells, PEP005-treated and 20 nM phorbol myristate (PMA)-treated (Sigma Aldrich) cells were also assessed for their ability to phagocytose complement-coated yeast, a marker of a fully differentiated myeloid cell, as previously described (Toksoz et al, Leukemia Res 6:491-498, 1982). The ingestion of three or more yeasts was taken as a positive result. In normal cord blood or adult bone marrow myeloblasts, loss of CD34 was taken as a marker of differentiation. Isotype-matched controls were used and all antibodies were from DAKO (Cambridge, United Kingdom). […] Images were captured with a SPOT2 cameria (Diagnostic Instructions, Sterling Heights, Mich.) and analyzed using Image-Pro 4.0 software (Media Cybernetics, Silver Spring, Md.).

In a further assay the target is EGFP-tagged mouse PKC-δ (Mus musculus, UniProt P28867). Conditions: KG1a. The protocol: KG1a cells were transfected with PKC-δ-EGFP or pEGFP-N1 (vector control). At 24 hours after transfection, cells were treated with 0, 0.2, 2 and 20 μM PEP005 and cytospins prepared after 15 minutes. Slides were fixed with 2% v/v paraformaldehyde in PBS for 20 minutes, rinsed briefly in PBS and mounted in Vectashield containing DAPI (4.6 diamidino-2-phenylindole; Vector Laboratories, Burlingame, Calif.). Slides were examined using a Leica Fluorescence microscope (Leica, Heidelberg, Germany) fitted with ×60 oil immersion objective. Images were captured using a Hamanatsu C4742-95 camera (Grafter Imaging, Austin, Tex.) and analyzed using OpenLab 3.1 software (Improvision, Coventry, United Kingdom).

The subject of a further assay is NB4. Kind of assay: Apoptosis (sub-G1 DNA by FACS) in NB4 leukemic cells. Format: cell-based. Here is the method:
as §1, with “Blast purity ranged from 80% to 95%, as assessed by expression of CD34.” left out
To determine the effects of ingenol-3-angelate (PEP005), cells were incubated for up to 5 days with medium alone or PEP005 at a range of concentrations from 0.2 nM to 20 μM. […] Apoptosis and differentiation were assessed after 1 to 5 days.

The test system of assay [2] is EGFP-positive KG1a cells transfected with control vector. Kind of assay: Apoptosis in KG1a cells transfected with control vector pEGFP. Format: cell-based. The note with it: even at 20 μM PEP005, 3 days. The protocol:
KG1a cells were transiently transfected with EGFP-tagged mouse PKC-δ subcloned into pEGFP-N1 plasmid (available from National Cancer Institute [NCI], Bethesda, Md.) using an Amaxa nucleofection apparatus (Amaxa, Koeln, Germany). Transfection efficiency was approximately 35% as judged by fluorescence-activated cell sorter (FACS) analysis and cells were treated with PEP005 (0.2 μM-20 μM) 24 hours after transfection. Cell viability in EGFP-positive cells was assessed by analysis of cell morphology (forward scatter and side scatter profile) by FACS and loss of viability confirmed in the total cell culture by MTT assay after 3 days. Briefly, 24 hours after transfection, 2×10^4 cells were plated in five wells in 96-well plates and exposed to […] PEP005. At 72 hours, 20 μL MTT substrate at 5 mg/mL was added and plates were incubated at 37° C. After 3 hours, 150 μL media was removed and replated with 200 μL dimethyl sulfoxide (DMSO). Absorbance at an optical density (OD) of 550 nm was read on a Biotech plate reader (Amersham Pharmacia) and corrected for absorbance obtained from blank media controls.

Assay [3] relates to HL60. Put plainly: Apoptosis (sub-G1 DNA by FACS, caspase-3 activation) in HL60 leukemic cells. Format: cell-based. The protocol: as §1, with “Blast purity ranged from 80% to 95%, as assessed by expression of CD34.” left out
To determine the effects of ingenol-3-angelate (PEP005), cells were incubated for up to 5 days with medium alone or PEP005 at a range of concentrations from 0.2 nM to 20 μM. PEP005 was extracted from Euphorbia peplus and supplied as a 98.5% pure preparation by Peplin Limited (Brisbane, Australia) as a dry pellet and was made up to a stock of […] in acetone on a weekly basis. Stocks were stored at 4° C. and diluted into medium when required. Final acetone concentration was never more than 0.1% v/v. Apoptosis and differentiation were assessed after 1 to 5 days.
(In general: Flow cytometry measures light scatter and fluorescence of single cells or particles in a stream.)

Setting [4] is: sub-G1 DNA by FACS, treated 5 days.
Setting [5] is: within the first 1 to 2 days of treatment.

Chain of EGFP-tagged mouse PKC-δ (P28867 whole entry): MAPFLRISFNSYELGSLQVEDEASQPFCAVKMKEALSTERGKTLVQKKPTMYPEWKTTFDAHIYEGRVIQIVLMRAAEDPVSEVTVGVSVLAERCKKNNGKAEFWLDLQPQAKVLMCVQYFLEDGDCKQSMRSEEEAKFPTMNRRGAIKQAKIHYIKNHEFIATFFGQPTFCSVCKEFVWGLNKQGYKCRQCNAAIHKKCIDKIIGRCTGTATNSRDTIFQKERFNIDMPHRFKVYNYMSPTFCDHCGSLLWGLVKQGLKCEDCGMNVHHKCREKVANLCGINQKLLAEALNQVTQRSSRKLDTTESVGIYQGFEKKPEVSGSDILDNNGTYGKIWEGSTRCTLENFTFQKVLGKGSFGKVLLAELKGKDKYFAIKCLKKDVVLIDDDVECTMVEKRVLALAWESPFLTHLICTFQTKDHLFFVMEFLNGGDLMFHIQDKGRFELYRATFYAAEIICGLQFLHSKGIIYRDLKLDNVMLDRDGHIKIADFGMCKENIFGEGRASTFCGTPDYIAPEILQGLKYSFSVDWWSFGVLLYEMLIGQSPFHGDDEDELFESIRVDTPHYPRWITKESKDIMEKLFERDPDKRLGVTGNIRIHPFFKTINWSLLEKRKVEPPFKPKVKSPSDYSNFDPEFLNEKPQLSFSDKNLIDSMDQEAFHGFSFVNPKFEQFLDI

Take `C/C=C(/C)C(=O)O[C@H]1C(C)=C[C@]23C(=O)[C@@H](C=C(CO)[C@@H](O)[C@]12O)[C@H]1[C@@H](C[C@H]3C)C1(C)C` [PEP005, ingenol-3-angelate]: the “differentiation to phagocytes (ability to phagocytose yeast)” value in the assay on HL60 [1] is reported as “did not lead to production of phagocytic cells”. Also, the “activation of protein kinase C” value in the assay on protein kinase C (PKC) is “potent activator”. For the same molecule, the “predominant response (kinetic study)” value in the assay on U937 is “expressed CD11b as the predominant response before entering apoptosis”. Besides, the “synergy with ATRA in CD11b differentiation response” value in the assay with U937 (10 nM ATRA and 20 nM PEP005 in combination, 5 days) is “able to synergize with ATRA”. In the assay on U937 (treated 5 days), the “PEP005 concentration with optimal effect, CD11b expression” value is 20 nM. Further, at EGFP-tagged mouse PKC-δ (200 nM PEP005), the “time to translocation of EGFP-tagged PKC-δ to the nuclear region” value is no more than 5 min. The “translocation of EGFP-PKC-δ” value at EGFP-tagged mouse PKC-δ (from cytosol after PEP005 treatment) is “induced its translocation to the nucleus and perinuclear region”. Further, the “PEP005 concentration with optimal effect, apoptosis” value with NB4 (setting [4]) and with HL60 [3] (setting [4]) was 20 nM in each case. Besides, the “fraction of cells entering apoptosis (kinetic study)” value in the assay on NB4 (setting [5]) and with HL60 [3] (setting [5]) was “up to half of the cells entering apoptosis” each time. For the same molecule, the “apoptosis (forward and side scatter by FACS)” value in assay [2] is given as “resistant to PEP005-induced apoptosis”. In the assay with HL60 [3] (after 3 days of treatment, PMA 20 nM), the “apoptosis (caspase-3 activity)” value is on record as “apoptosis was the dominant effect”.
